Values after ≈ are worked out from the molar mass of the structure shown. Values joined by “and” are separate entries in the source; they are usually repeats but may differ in a detail not shown here. Equal entries are not always repeated.
System: Neisseria gonorrhoeae
Assay: MIC, microbroth dilution, G77L medium
Assay type: cell-based

O=C(Nc1nnc(-c2ccc(F)cc2)o1)N1CCc2ccccc2C1 [MBX-4132] was tested, and the MIC (Neisseria gonorrhoeae, strain MMX 6752, TET, by Micromyx) was 0.27 µg/mL (≈ 0.798 µM), the MIC (Neisseria gonorrhoeae, strain MMX 6753, by Micromyx) was 0.14 µg/mL (≈ 0.414 µM) and the MIC (Neisseria gonorrhoeae, strain MMX 6757, by Micromyx) was 0.07 µg/mL (≈ 0.207 µM). For the same molecule, the MIC (Neisseria gonorrhoeae, strain MMX 6758, by Micromyx) was 0.27 µg/mL (≈ 0.798 µM), the MIC (Neisseria gonorrhoeae, strain MMX 6762, by Micromyx) was 0.27 µg/mL (≈ 0.798 µM) and the MIC (Neisseria gonorrhoeae, strain MMX 6767, by Micromyx) was 0.14 µg/mL (≈ 0.414 µM). For the same molecule, the MIC (Neisseria gonorrhoeae, strain MMX 6771, TET, by Micromyx) was 0.14 µg/mL (≈ 0.414 µM), the MIC (Neisseria gonorrhoeae, strain MMX 6793, CIP, by Micromyx) was 0.14 µg/mL (≈ 0.414 µM) and the MIC (Neisseria gonorrhoeae, strain MMX 6797, CIP, TET, by Micromyx) was 0.14 µg/mL (≈ 0.414 µM). The MIC (Neisseria gonorrhoeae, strain MMX 6803, CIP, by Micromyx) was 0.27 µg/mL (≈ 0.798 µM), the MIC (Neisseria gonorrhoeae, strain MMX 6812, CIP, by Micromyx) was 0.27 µg/mL (≈ 0.798 µM) and the MIC (Neisseria gonorrhoeae, strain MMX 6818, CIP, by Micromyx) was 0.27 µg/mL (≈ 0.798 µM). The MIC (Neisseria gonorrhoeae, strain MMX 6819, CIP, by Micromyx) was 0.14 µg/mL (≈ 0.414 µM), the MIC (Neisseria gonorrhoeae, strain MMX 6879, by Micromyx) was 0.14 µg/mL (≈ 0.414 µM) and the MIC (Neisseria gonorrhoeae, strain MMX 6921, CIP, by Micromyx) was 0.53 µg/mL (≈ 1.57 µM). For the same molecule, the MIC (Neisseria gonorrhoeae, strain MMX 6922, CIP, by Micromyx) was 0.53 µg/mL (≈ 1.57 µM), the MIC (Neisseria gonorrhoeae, strain MMX 6983, CIP, by Micromyx) was 0.53 µg/mL (≈ 1.57 µM) and the MIC (Neisseria gonorrhoeae, strain MMX 6989, by Micromyx) was 0.14 µg/mL (≈ 0.414 µM). The MIC (Neisseria gonorrhoeae, strain MMX 6990, CIP, by Micromyx) was 0.14 µg/mL (≈ 0.414 µM), the MIC (Neisseria gonorrhoeae, strain MMX 6992, by Micromyx) was 0.14 µg/mL (≈ 0.414 µM) and the MIC (Neisseria gonorrhoeae, strain MMX 6996, by Micromyx) was 0.27 µg/mL (≈ 0.798 µM). It also gave an MIC (Neisseria gonorrhoeae, strain MMX 6998, CIP, by Micromyx) of 0.53 µg/mL (≈ 1.57 µM), an MIC (Neisseria gonorrhoeae, strain MMX 7002, CIP, by Micromyx) of 0.27 µg/mL (≈ 0.798 µM) and an MIC (Neisseria gonorrhoeae, strain MMX 7005, by Micromyx) of 0.03 µg/mL (≈ 0.0887 µM). For the same molecule, the MIC (Neisseria gonorrhoeae, strain WHO F) was 0.06 µg/mL (≈ 0.177 µM), the MIC (Neisseria gonorrhoeae, strain WHO F, replicates 1-3) was 0.066 µg/mL (≈ 0.195 µM) and the MIC (Neisseria gonorrhoeae, strain WHO G, PEN, TET) was 0.13 µg/mL (≈ 0.384 µM). It also gave an MIC (Neisseria gonorrhoeae, strain WHO G, replicates 1-3) of 0.132 µg/mL (≈ 0.39 µM), an MIC (Neisseria gonorrhoeae, strain WHO K, CIP, PEN, TET) of 0.26 µg/mL (≈ 0.768 µM) and an MIC (Neisseria gonorrhoeae, strain WHO K, replicates 1-3) of 0.264 µg/mL (≈ 0.78 µM). The MIC (Neisseria gonorrhoeae, strain WHO L, CIP, PEN, TET) was 0.26 µg/mL (≈ 0.768 µM), the MIC (Neisseria gonorrhoeae, strain WHO L, replicates 1-3) was 0.264 µg/mL (≈ 0.78 µM) and the MIC (Neisseria gonorrhoeae, strain WHO M, CIP, PEN, TET) was 0.13 µg/mL (≈ 0.384 µM). The MIC (Neisseria gonorrhoeae, strain WHO M, replicates 1-3) was 0.132 µg/mL (≈ 0.39 µM), the MIC (Neisseria gonorrhoeae, strain WHO N, CIP, PEN, TET) was 0.26 µg/mL (≈ 0.768 µM) and the MIC (Neisseria gonorrhoeae, strain WHO N, replicates 1-3) was 0.264 µg/mL (≈ 0.78 µM). For the same molecule, the MIC (Neisseria gonorrhoeae, strain WHO O, PEN, TET) was 0.13 µg/mL (≈ 0.384 µM), the MIC (Neisseria gonorrhoeae, strain WHO O, replicates 1-3) was 0.132 µg/mL (≈ 0.39 µM) and the MIC (Neisseria gonorrhoeae, strain WHO P, PEN, TET) was 0.33 µg/mL (≈ 0.975 µM). For the same molecule, the MIC (Neisseria gonorrhoeae, strain WHO U, PEN, TET) was 0.13 µg/mL (≈ 0.384 µM), the MIC (Neisseria gonorrhoeae, strain WHO U, replicates 1-3) was 0.132 µg/mL (≈ 0.39 µM) and the MIC (Neisseria gonorrhoeae, strain WHO V, AZM, CIP, PEN, TET) was 0.26 µg/mL (≈ 0.768 µM). The MIC (Neisseria gonorrhoeae, strain WHO V, replicates 1-3) was 0.264 µg/mL (≈ 0.78 µM), the MIC (Neisseria gonorrhoeae, strain WHO W, CIP, PEN, TET) was 0.13 µg/mL (≈ 0.384 µM) and the MIC (Neisseria gonorrhoeae, strain WHO W, replicates 1-3) was 0.132 µg/mL (≈ 0.39 µM). It also gave an MIC (Neisseria gonorrhoeae, strain WHO X, CIP, PEN, TET) of 0.21 µg/mL (≈ 0.621 µM), an MIC (Neisseria gonorrhoeae, strain WHO X, replicates 1-3) of 0.132 µg/mL (≈ 0.39 µM) and an MIC (Neisseria gonorrhoeae, strain WHO Y, CIP, PEN, TET) of 0.21 µg/mL (≈ 0.621 µM). The MIC (Neisseria gonorrhoeae, strain WHO Y, replicates 1-3) was 0.264 µg/mL (≈ 0.78 µM), the MIC (Neisseria gonorrhoeae, strain WHO Z, CIP, PEN, TET) was 0.26 µg/mL (≈ 0.768 µM) and the MIC (Neisseria gonorrhoeae, strain WHO Z, replicates 1-3) was 0.264 µg/mL (≈ 0.78 µM). For the same molecule, the MIC (strain ATCC 49226, replicates 1-3) was 0.169 µg/mL and 0.085 µg/mL, the MIC (strain ATCC 700719, replicates 1-3) was 0.169 µg/mL and 0.338 µg/mL and the MIC (strain ATCC 700825, replicates 1-3) was 0.042 µg/mL (≈ 0.124 µM). The MIC (strain BAA-1846, replicates 1-3) was 0.042 µg/mL (≈ 0.124 µM) and the MIC (strain CDC-0165, replicates 1-3) was 0.677 µg/mL (≈ 2 µM).

Reference: paper PMC7979765, “trans-Translation inhibitors bind to a novel site on the ribosome and clear Neisseria gonorrhoeae in vivo” (Nature Communications, 2021)
